Source: patent US20230301957A1, “PO[…] ACID ESTER COMPOSITION AND APPLICATION THEREOF” (SINGAO (XUZHOU) BIOTECH CO., LTD, priority 2020, published 2023)

Test system: influenza virus H1N1
Assay: Hemagglutination test of supernatants of influenza-infected A549 cells
Format: cell-based, influenza virus H1N1 (A549 cells)
Conditions: for hemagglutination titer, average values: average of the two inoculation treatments (Protocol 1 and 2); for inhibitory effect on the influenza virus (in words): from average hemagglutination titers, high titer indicates high virus content
Experimental: A total of four samples were prepared in this experiment: • (1) a lauric acid sample: 3.5 mg of lauric acid was dissolved in 0.5 mL of dimethyl sulfoxide, and then diluted with 9.5 mL of cell culture medium to a final concentration of 0.35 mg/mL and a pH value of the sample was 10.1; • (2) an α-monolaurin sample: 4.8 mg of α-monolaurin was dissolved in 0.5 mL of dimethyl sulfoxide, and then diluted with 9.5 mL of cell culture medium to a final concentration of 0.48 mg/mL and a pH value of the sample was 10.3; • (3) a triglycerol monolaurin sample: 7.5 mg of triglycerol monolaurin was diluted with 10 mL of cell culture medium to a final concentration of 0.75 mg/mL and a pH value of the sample was 7.6; and • (4) a triglycerol monolaurin acidic emulsion sample: 50 mg of triglycerol monolaurin acidic emulsion sample was diluted with 10 mL of cell culture medium to a final concentration of 5 mg/mL and a pH value of the sample was 7.5.
According to equivalent lauric acid concentration conversion, lauric acid concentrations in the samples (2) to (4) were all 0.35 mg/mL, which was equal to that in the sample (1).
The A549 cells were cultured in a 24-well plate, after growing to a monolayer, the cells were treated according to the following two protocols: • I. The cell culture medium was removed, the virus was added, the cells were cultured in an incubator with 5% CO2 at 37° C. for 1 h, the virus solution was removed, each prepared sample was added, 12 parallel test wells were set for each group, and the cells were cultured in the incubator with 5% CO2 at 37° C. for 1 h. After the culture, liquids in the cell culture wells were removed, the cells were washed with PBS, added with a cell maintenance medium, and cultured in the incubator with 5% CO2 at 37° C. for 24 h. Meanwhile, a virus positive control group (a cell culture medium mixed with influenza virus 24HAU was added) was set. • II. The cell culture medium was removed, each prepared sample and the virus were added, 12 parallel test wells were set for each group, and the cells were cultured in an incubator with 5% CO2 at 37° C. for 1 h. After the culture, liquids in the cell culture wells were removed, the cells were washed with PBS, added with a cell maintenance medium, and cultured in the incubator with 5% CO2 at 37° C. for 24 h. Meanwhile, a virus positive control group (a cell culture medium mixed with influenza virus 24HAU was added) was set.
Cell culture supernatants respectively obtained by the above 2 treatment methods were used for hemagglutination test, each culture plate was frozen and thawed repeatedly 3 times, a cell solution was collected for extraction of RNA, which was used for qRT-PCR detection of nucleoprotein (NP).

Row | Compound | hemagglutination titer, average values | inhibitory effect on the influenza virus (in words)
1 | CCCCCCCCCCCC(=O)O [(1), lauric acid] | 4.75 | weaker compared to the sample (4)
2 | CCCCCCCCCCCC(=O)OCC(O)CO (stereo not drawn) [(2), α-monolaurin] | 2.25 | the strongest
3 | triglycerol monolaurin [(3)] | 4.25 | weaker compared to the sample (4)
